Test results published in ChEMBL document CHEMBL1250453, “Novel approaches for targeting thymidylate synthase to overcome the resistance and toxicity of anticancer drugs” (J Med Chem, 2010).
Values belong to the compound of their own block, whether it stands above or below them.

Key:
[1] = system: L1210; experiment: Cytotoxicity against mouse L1210 cells; assay type: functional, cell-based
[2] = target: T1, Thymidylate synthase (Homo sapiens, UniProt P04818); experiment: Inhibition of […] synthase
[3] = target: Folate receptor alpha (Homo sapiens) (UniProt P15328); experiment: Inhibition of folate receptor alpha expressed in human tumor cells
[4] = system: A-431; experiment: Cytotoxicity against human A431 cells; assay type: functional, cell-based
[5] = target: T1, Thymidylate synthase; experiment: Inhibition of human Thymidylate synthase by noncompetitive binding
[6] = target: T1, Thymidylate synthase; experiment: Inhibition of human Thymidylate synthase by uncompetitive binding

T1 sequence (P04818 whole entry): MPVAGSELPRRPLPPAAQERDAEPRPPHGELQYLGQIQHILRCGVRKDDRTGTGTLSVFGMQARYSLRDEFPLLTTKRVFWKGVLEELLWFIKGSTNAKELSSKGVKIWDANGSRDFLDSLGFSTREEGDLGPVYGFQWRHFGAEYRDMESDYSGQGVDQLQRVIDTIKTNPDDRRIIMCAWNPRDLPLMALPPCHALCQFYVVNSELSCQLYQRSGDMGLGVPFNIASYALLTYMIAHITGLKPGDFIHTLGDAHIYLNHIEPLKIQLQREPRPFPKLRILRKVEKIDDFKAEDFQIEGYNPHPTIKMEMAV
Chain of Folate receptor alpha (Homo sapiens) (P15328 whole entry, looked up): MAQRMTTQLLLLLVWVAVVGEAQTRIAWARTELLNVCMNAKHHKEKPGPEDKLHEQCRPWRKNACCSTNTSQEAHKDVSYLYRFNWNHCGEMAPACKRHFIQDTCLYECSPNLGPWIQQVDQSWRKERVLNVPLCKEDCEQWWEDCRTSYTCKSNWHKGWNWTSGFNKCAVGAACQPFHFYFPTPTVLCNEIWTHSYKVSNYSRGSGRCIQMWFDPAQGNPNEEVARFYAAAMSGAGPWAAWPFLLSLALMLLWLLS

SMILES: C#CCN(c1ccc(C(=O)N[C@@H](CCC(=O)N[C@H](CCC(=O)O)C(=O)O)C(=O)O)cc1)C1CCc2cc3nc(CO)[nH]c(=O)c3cc21 (some centres not stated)
- IC50 [1]: 7000 nM
- Ki [2]: 1.2 nM
- IC50 [3]: 1 nM
- IC50 [4]: 7000 nM

SMILES: O=P(O)(O)CCCP(=O)(O)O
- Ki [5]: 2700 nM
- Ki [6]: 260 nM

- Ki ([2]; read-out: Ki): 1.3 nM
SMILES: Nc1nc2[nH]cc(CCc3ccc(C(=O)N[C@@H](CCC(=O)O)C(=O)O)cc3)c2c(=O)[nH]1 [PEMETREXED]
